{"source": "patent US12331059B2", "about": "(priority 2019, dated 2025)", "data": [{"tested_on": "U937 leukemia cells", "test": "not given", "parameters": "species or system NSG mice", "conditions": "mouse", "values": [{"smiles": "Cc1ncsc1-c1ccc(CNC(=O)C2CC(O)CN2C(=O)C(NC(=O)CCNC(=O)OCCCC2OC3OC4(C)CCC5C(C)CCC(C2C)C35OO4)C(C)(C)C)cc1", "note": "(stereo not drawn) [CL-8]", "inhibition towards the growth of U937 leukemia cells in vivo": "strong inhibition"}]}, {"tested_on": "U937 leukemia cells", "test": "not given", "parameters": "species or system NSG mice", "conditions": "mouse, in vivo", "values": [{"smiles": "Cc1ncsc1-c1ccc(CNC(=O)C2CC(O)CN2C(=O)C(NC(=O)CCNC(=O)OCCCC2OC3OC4(C)CCC5C(C)CCC(C2C)C35OO4)C(C)(C)C)cc1", "note": "(stereo not drawn) [CL-8]", "The proportion of human leukemia cells in bone marrow of mice": "0.38 ± 0.08", "The proportion of human leukemia cells in peripheral blood of mice": "0.96 ± 0.16", "The proportion of human leukemia cells in spleen of mice": "11.39 ± 21.3"}, {"smiles": "C[C@H]1[C@H](OC(=O)CCC(=O)O)O[C@@H]2O[C@@]3(C)CC[C@H]4[C@H](C)CC[C@@H]1[C@@]24OO3", "note": "[artesunate, reference compound]", "The proportion of human leukemia cells in bone marrow of mice": "91.28 ± 2.20", "The proportion of human leukemia cells in peripheral blood of mice": "21.92 ± 2.58", "The proportion of human leukemia cells in spleen of mice": "49.77 ± 9.28"}]}, {"tested_on": "MV4-11 cells", "test": "cells", "format": "cell-based", "conditions": "Homo sapiens, MV4-11, 48 h", "units": {"IC50": "µM"}, "values": [{"smiles": "Cc1ncsc1-c1ccc(CNC(=O)C2CC(O)CN2C(=O)C(NC(=O)CCOCCOCCNC(=O)OCCCC2OC3OC4(C)CCC5C(C)CCC(C2C)C35OO4)C(C)(C)C)cc1", "note": "(stereo not drawn) [CL-2]", "IC50": 0.59}, {"smiles": "Cc1ncsc1-c1ccc(CNC(=O)C2CC(O)CN2C(=O)C(NC(=O)CCOCCOCCOCCNC(=O)OCCCC2OC3OC4(C)CCC5C(C)CCC(C2C)C35OO4)C(C)(C)C)cc1", "note": "(stereo not drawn) [CL-3]", "IC50": 0.52}, {"smiles": "Cc1ncsc1-c1ccc(CNC(=O)C2CC(O)CN2C(=O)C(NC(=O)CNC(=O)OCCCC2OC3OC4(C)CCC5C(C)CCC(C2C)C35OO4)C(C)(C)C)cc1", "note": "(stereo not drawn) [CL-4]", "IC50": 0.91}, {"smiles": "Cc1ncsc1-c1ccc(CNC(=O)C2CC(O)CN2C(=O)C(NC(=O)CCCNC(=O)OCCCC2OC3OC4(C)CCC5C(C)CCC(C2C)C35OO4)C(C)(C)C)cc1", "note": "(stereo not drawn) [CL-5]", "IC50": 0.55}, {"smiles": "Cc1ncsc1-c1ccc(CNC(=O)C2CC(O)CN2C(=O)C(NC(=O)CCCCNC(=O)OCCCC2OC3OC4(C)CCC5C(C)CCC(C2C)C35OO4)C(C)(C)C)cc1", "note": "(stereo not drawn) [CL-6]", "IC50": 5.3}, {"smiles": "Cc1ncsc1-c1ccc(CNC(=O)C2CC(O)CN2C(=O)C(NC(=O)Cc2ccc(CNC(=O)OCCCC3OC4OC5(C)CCC6C(C)CCC(C3C)C46OO5)cc2)C(C)(C)C)cc1", "note": "(stereo not drawn) [CL-7]", "IC50": 0.46}, {"smiles": "Cc1ncsc1-c1ccc(CNC(=O)C2CC(O)CN2C(=O)C(NC(=O)CCNC(=O)OCCCC2OC3OC4(C)CCC5C(C)CCC(C2C)C35OO4)C(C)(C)C)cc1", "note": "(stereo not drawn) [CL-8]", "IC50": 0.24}, {"smiles": "Cc1ncsc1-c1ccc(CNC(=O)C2CC(O)CN2C(=O)C(NC(=O)CCOCCNC(=O)CC2OC3OC4(C)CCC5C(C)CCC(C2C)C35OO4)C(C)(C)C)cc1", "note": "(stereo not drawn) [CL-9]", "IC50": 4.67}, {"smiles": "Cc1ncsc1-c1ccc(CNC(=O)C2CC(O)CN2C(=O)C(NC(=O)CCOCCOCCNC(=O)CC2OC3OC4(C)CCC5C(C)CCC(C2C)C35OO4)C(C)(C)C)cc1", "note": "(stereo not drawn) [CL-10]", "IC50": 44.5}, {"smiles": "Cc1ncsc1-c1ccc(CNC(=O)C2CC(O)CN2C(=O)C(NC(=O)CCOCCOCCOCCNC(=O)CC2OC3OC4(C)CCC5C(C)CCC(C2C)C35OO4)C(C)(C)C)cc1", "note": "(stereo not drawn) [CL-11]", "IC50": 29.6}, {"smiles": "Cc1ncsc1-c1ccc(CNC(=O)C2CC(O)CN2C(=O)C(NC(=O)CNC(=O)CC2OC3OC4(C)CCC5C(C)CCC(C2C)C35OO4)C(C)(C)C)cc1", "note": "(stereo not drawn) [CL-12]", "IC50": 1.1}, {"smiles": "Cc1ncsc1-c1ccc(CNC(=O)C2CC(O)CN2C(=O)C(NC(=O)CCCNC(=O)CC2OC3OC4(C)CCC5C(C)CCC(C2C)C35OO4)C(C)(C)C)cc1", "note": "(stereo not drawn) [CL-13]", "IC50": 3.1}, {"smiles": "Cc1ncsc1-c1ccc(CNC(=O)C2CC(O)CN2C(=O)C(NC(=O)Cc2ccc(CNC(=O)CC3OC4OC5(C)CCC6C(C)CCC(C3C)C46OO5)cc2)C(C)(C)C)cc1", "note": "(stereo not drawn) [CL-15]", "IC50": 0.52}, {"smiles": "Cc1ncsc1-c1ccc(CNC(=O)C2CC(O)CN2C(=O)C(NC(=O)CCOCCNC(=O)OCCC2OC3OC4(C)CCC5C(C)CCC(C2C)C35OO4)C(C)(C)C)cc1", "note": "(stereo not drawn) [CL-17]", "IC50": 0.3}, {"smiles": "Cc1ncsc1-c1ccc(CNC(=O)C2CC(O)CN2C(=O)C(NC(=O)CCOCCOCCNC(=O)OCCC2OC3OC4(C)CCC5C(C)CCC(C2C)C35OO4)C(C)(C)C)cc1", "note": "(stereo not drawn) [CL-18]", "IC50": 2.66}, {"smiles": "Cc1ncsc1-c1ccc(CNC(=O)C2CC(O)CN2C(=O)C(NC(=O)CCOCCOCCOCCNC(=O)OCCC2OC3OC4(C)CCC5C(C)CCC(C2C)C35OO4)C(C)(C)C)cc1", "note": "(stereo not drawn) [CL-19]", "IC50": 0.5}, {"smiles": "Cc1ncsc1-c1ccc(CNC(=O)C2CC(O)CN2C(=O)C(NC(=O)CCCNC(=O)OCCC2OC3OC4(C)CCC5C(C)CCC(C2C)C35OO4)C(C)(C)C)cc1", "note": "(stereo not drawn) [CL-21]", "IC50": 0.84}, {"smiles": "Cc1ncsc1-c1ccc(CNC(=O)C2CC(O)CN2C(=O)C(NC(=O)CCCCNC(=O)OCCC2OC3OC4(C)CCC5C(C)CCC(C2C)C35OO4)C(C)(C)C)cc1", "note": "(stereo not drawn) [CL-22]", "IC50": 0.2}, {"smiles": "Cc1ncsc1-c1ccc(CNC(=O)C2CC(O)CN2C(=O)C(NC(=O)Cc2ccc(CNC(=O)OCCC3OC4OC5(C)CCC6C(C)CCC(C3C)C46OO5)cc2)C(C)(C)C)cc1", "note": "(stereo not drawn) [CL-23]", "IC50": 6.2}, {"smiles": "Cc1ncsc1-c1ccc(CNC(=O)C2CC(O)CN2C(=O)C(NC(=O)CCNC(=O)OCCC2OC3OC4(C)CCC5C(C)CCC(C2C)C35OO4)C(C)(C)C)cc1", "note": "(stereo not drawn) [CL-24]", "IC50": 0.5}, {"smiles": "Cc1ncsc1-c1ccc(CNC(=O)C2CC(O)CN2C(=O)C(NC(=O)CCOCCNC(=O)C23CC4CC(C2)C2(OOC5(CCCCC5)O2)C(C4)C3)C(C)(C)C)cc1", "note": "(stereo not drawn) [CL-25]", "IC50": 5.5}, {"smiles": "Cc1ncsc1-c1ccc(CNC(=O)C2CC(O)CN2C(=O)C(NC(=O)CCOCCOCCNC(=O)C23CC4CC(C2)C2(OOC5(CCCCC5)O2)C(C4)C3)C(C)(C)C)cc1", "note": "(stereo not drawn) [CL-26]", "IC50": 8.1}, {"smiles": "Cc1ncsc1-c1ccc(CNC(=O)C2CC(O)CN2C(=O)C(NC(=O)CCOCCOCCOCCNC(=O)C23CC4CC(C2)C2(OOC5(CCCCC5)O2)C(C4)C3)C(C)(C)C)cc1", "note": "(stereo not drawn) [CL-27]", "IC50": 12}, {"smiles": "Cc1ncsc1-c1ccc(CNC(=O)C2CC(O)CN2C(=O)C(NC(=O)CNC(=O)C23CC4CC(C2)C2(OOC5(CCCCC5)O2)C(C4)C3)C(C)(C)C)cc1", "note": "(stereo not drawn) [CL-28]", "IC50": 9.72}, {"smiles": "Cc1ncsc1-c1ccc(CNC(=O)C2CC(O)CN2C(=O)C(NC(=O)CCCNC(=O)C23CC4CC(C2)C2(OOC5(CCCCC5)O2)C(C4)C3)C(C)(C)C)cc1", "note": "(stereo not drawn) [CL-29]", "IC50": 3.5}, {"smiles": "Cc1ncsc1-c1ccc(CNC(=O)C2CC(O)CN2C(=O)C(NC(=O)CCCCNC(=O)C23CC4CC(C2)C2(OOC5(CCCCC5)O2)C(C4)C3)C(C)(C)C)cc1", "note": "(stereo not drawn) [CL-30]", "IC50": 8.31}, {"smiles": "Cc1ncsc1-c1ccc(CNC(=O)C2CC(O)CN2C(=O)C(NC(=O)Cc2ccc(CNC(=O)C34CC5CC(C3)C3(OOC6(CCCCC6)O3)C(C5)C4)cc2)C(C)(C)C)cc1", "note": "(stereo not drawn) [CL-31]", "IC50": 3.04}, {"smiles": "Cc1ncsc1-c1ccc(CNC(=O)C2CC(O)CN2C(=O)C(NC(=O)CCNC(=O)C23CC4CC(C2)C2(OOC5(CCCCC5)O2)C(C4)C3)C(C)(C)C)cc1", "note": "(stereo not drawn) [CL-32]", "IC50": 3.38}, {"smiles": "Cc1ncsc1-c1ccc(CNC(=O)C2CC(O)CN2C(=O)C(NC(=O)CCNC(=O)CCC(=O)NN2C(=O)C(C)C3CCC(C)C4CCC5(C)OOC43C2O5)C(C)(C)C)cc1", "note": "(stereo not drawn) [CL-40]", "IC50": 6.08}]}]}
